The values below come from ChEMBL document CHEMBL4619734, “Molecule Property Analyses of Active Compounds for Mycobacterium tuberculosis” (J Med Chem, 2020).

Values after ≈ are worked out from the molar mass of the structure shown.

Assay [1] relates to Mycobacterium tuberculosis. Nature of the assay: Antimycobacterial activity against Mycobacterium tuberculosis. In kind it is functional.
Assay [2] has as its system Mycobacterium tuberculosis. Nature of the assay: Antimycobacterial activity against Mycobacterium tuberculosis H37Rv. In kind it is functional.
Assay [3] deals with Mycobacterium tuberculosis. Nature of the assay: Antimycobacterial activity against Mycobacterium tuberculosis H37Rv ATCC 27294 assessed as reduction in mycolic acids synthesis after 8 hrs in presence of [1, 2-14C]-acetate by TLC analysis. Format: functional. The following applies: H37Rv ATCC 27294, 8 h.
For assay [4], the system named is Mycobacterium tuberculosis. Nature of the assay: Antimycobacterial activity against Mycobacterium tuberculosis H37Rv expressing LeuRS. Format: functional.
A short description of assay [5]: Inhibition of human cytoplasmic LeuRS.
For assay [6], the target named is T1, Leucine--tRNA ligase (Mycobacterium tuberculosis (strain ATCC 25618 / H37Rv), UniProt P9WFV1).
T1 sequence (P9WFV1 whole entry): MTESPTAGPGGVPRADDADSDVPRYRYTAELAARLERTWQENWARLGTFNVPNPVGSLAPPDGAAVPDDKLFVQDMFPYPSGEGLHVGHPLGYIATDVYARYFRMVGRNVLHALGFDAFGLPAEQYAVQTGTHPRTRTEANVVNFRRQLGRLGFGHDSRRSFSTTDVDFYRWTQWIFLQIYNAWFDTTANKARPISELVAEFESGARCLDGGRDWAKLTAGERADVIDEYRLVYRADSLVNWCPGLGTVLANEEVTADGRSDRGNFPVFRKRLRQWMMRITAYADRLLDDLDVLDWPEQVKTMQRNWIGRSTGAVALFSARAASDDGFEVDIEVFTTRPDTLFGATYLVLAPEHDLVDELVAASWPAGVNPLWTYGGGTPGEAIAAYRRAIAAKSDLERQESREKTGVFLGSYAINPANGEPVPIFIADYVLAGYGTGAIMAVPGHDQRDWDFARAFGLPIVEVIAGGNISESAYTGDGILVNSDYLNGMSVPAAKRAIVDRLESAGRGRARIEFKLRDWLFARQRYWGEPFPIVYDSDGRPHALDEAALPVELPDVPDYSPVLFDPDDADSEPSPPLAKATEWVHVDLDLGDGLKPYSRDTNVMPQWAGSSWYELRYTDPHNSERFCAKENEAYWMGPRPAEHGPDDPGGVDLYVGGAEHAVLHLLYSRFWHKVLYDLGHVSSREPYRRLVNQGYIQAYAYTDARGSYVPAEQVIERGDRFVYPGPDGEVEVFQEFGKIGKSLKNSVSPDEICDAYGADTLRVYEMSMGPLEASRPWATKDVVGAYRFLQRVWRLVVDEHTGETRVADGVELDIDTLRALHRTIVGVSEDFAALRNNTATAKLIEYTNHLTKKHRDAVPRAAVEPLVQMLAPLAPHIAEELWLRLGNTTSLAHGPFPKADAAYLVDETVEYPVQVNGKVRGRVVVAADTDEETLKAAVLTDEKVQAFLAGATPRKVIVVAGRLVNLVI
Nature of the assay: Inhibition of Mycobacterium tuberculosis LeuRS expressed in Escherichia coli Rosetta (DE3) cells.

Assay [7] relates to Mycobacterium tuberculosis. Nature of the assay: Antimycobacterial activity against Mycobacterium tuberculosis H37Ra after 7 to 8 days by MABA assay. In kind it is functional.
In assay [8] the test system is Mycobacterium tuberculosis. Nature of the assay: Antimycobacterial activity against Mycobacterium tuberculosis expressing Rv1258c efflux pump. Format: functional.
The subject of assay [9] is Mycobacterium avium. Nature of the assay: Antimycobacterial activity against Mycobacterium avium 33 expressing MraY. Format: functional.
In assay [10] the test system is Mycobacterium tuberculosis. Nature of the assay: Antimycobacterial activity against Mycobacterium tuberculosis clinical isolates. Format: functional.
In assay [11] the test system is Mycobacterium tuberculosis. Nature of the assay: Antimycobacterial activity against Mycobacterium tuberculosis expressing WecA. In kind it is functional.
Assay [12] has as its system Mycobacterium avium. Nature of the assay: Antimycobacterial activity against Mycobacterium avium infected in mouse assessed as reduction in mycolic acids synthesis. Format: functional.
Assay [13] deals with Mycolicibacterium smegmatis. Nature of the assay: Antimycobacterial activity against Mycobacterium smegmatis. In kind it is functional.
In assay [14] the test system is Mycobacterium tuberculosis. Nature of the assay: Antimycobacterial activity against Mycobacterium tuberculosis expressing DprE1. In kind it is functional.

By MIC is commonly meant the least concentration at which growth counts as inhibited. In assay [1], `c1ccc(-c2c[nH]cn2)cc1` had an MIC below 10 µM.
With `CCCCS(=O)(=O)Nc1ccc2cnn(C)c2c1`, in assay [2], the lowest concentration to inhibit growth (MIC) was 0.8 µM (≈ 0.214 µg/mL).
Regarding `COc1ccc(/C(C)=N/NC(N)=S)cc1`, the MIC in assay [3] was below 0.05 µg/mL.
The IC50 is the concentration at which inhibition is half-maximal. Low readings indicate greater potency, high ones weaker potency. `NC[C@H]1OB(O)c2c(OCCO)ccc(Cl)c21` showed an MIC in [4] of 0.08 µM (≈ 0.0206 µg/mL). The results for the IC50 in assay [5] and in assay [6] were 140 µM and 0.216 µM, respectively.
Take `NC(=O)c1sc(N2CCOCC2)cc1OCCc1ccc(OC(F)(F)F)cc1`: the MIC in assay [1] is 0.24 µM.
As to `CCCCCCCCCCNC(CC(=O)OCC)[C@H]1O[C@@H]2OC(C)(C)O[C@@H]2C1OC` (some centres not stated), in [7], it took 3.12 µg/mL (≈ 7.26 µM) to inhibit growth (MIC).
The compound `CN[C@H]1[C@@H](O)[C@@H](NC)CC2O[C@@H]3O[C@H](C)C[C@@H](NC(=O)Cc4ccc(O)cn4)[C@]3(O)C[C@@H]21` (some centres not stated) had an MIC in assay [8] of 1.6 µg/mL (≈ 3.55 µM).
On the same count and under the same terms, in the case of `CN[C@H]1[C@@H](O)[C@@H](NC)CC2O[C@@H]3O[C@H](C)C[C@@H](NC(=O)Cc4ccc(Cl)cn4)[C@]3(O)C[C@@H]21` (some centres not stated) it was 0.8 µg/mL (≈ 1.71 µM).
Turning to `CO[C@H]1[C@@H](O)[C@H](n2ccc(=O)[nH]c2=O)O[C@@H]1[C@@H](O[C@H]1OC(C(=O)NC2CCC[C@@H](C)NC2=O)=C[C@H](O)[C@@H]1O)C(N)=O` (some centres not stated), in [9], the MIC amounted to 1 µg/mL (≈ 1.71 µM).
`Cc1ccc(OCCCCCCn2ccnc2)c(C)c1`: it took 4.8 µg/mL to inhibit growth in [1] (MIC).
On to `CC(=O)NC[C@H]1CN(c2cc(F)c(C3=CCN(C(=O)[C@@H](O)CO)CC3)c(F)c2)C(=O)O1`, for which the MIC in assay [10] lay within 0.25 to 1 µg/mL (≈ 0.569 to 2.28 µM).
In assay [11], `CCCCc1ccc(NC(=O)C2=CCN(C)C(C(O[C@@H]3O[C@H](CN)[C@@H](O)[C@H]3O)[C@H]3OC(n4ccc(=O)[nH]c4=O)[C@H](O)[C@@H]3O)C(=O)N2C)cc1` (some centres not stated) yielded an MIC of 1.56 µg/mL (≈ 2.27 µM).
Compound `Cc1c(C(=O)C2CC2)[n+]([O-])c2cc(Cl)c(Cl)cc2[n+]1[O-]` showed an MIC in assay [1] of 1.2 µg/mL.
On the same count and under the same terms, in the case of `Cc1nn2c(O)cc(-c3ncccn3)nc2c1-c1ccc(Cl)cc1` it was 1.1 µg/mL.
`O=[N+]([O-])c1ccc(/C=N/Nc2nc(Nc3ccccc3)nc(N3CCOCC3)n2)o1` showed a minimum inhibitory concentration (MIC) in [1] of 0.63 µM.
As for `O=[N+]([O-])c1ccc(/C=N/Nc2nc(Nc3ccccc3)nc(Nc3ccccc3)n2)o1`, it took 0.078 µM to inhibit growth in assay [1] (MIC).
For the compound `Cc1ccc(C(=O)Nc2ccc([N+](=O)[O-])cc2)s1`, the MIC in [1] is 0.5 µg/mL.
As usually defined, the MIC90 is the lowest concentration that inhibits either 90% of growth or 90% of the strains tested, depending on the study. `CCCCCCCCc1nc2cc(C)c(C)cc2[nH]1` had an MIC90 in assay [1] of 0.75 µM.
Regarding `CC(=O)Nc1ccc(/C=N/NC(N)=S)cc1` [AMITHIOZONE], the MIC in [12] was found to be 0.1 µg/mL (≈ 0.423 µM).
In general, MIC99 refers to the lowest concentration that inhibits either 99% of growth or 99% of the strains tested, depending on the study. Higher therefore signals weaker potency. In assay [13], `COc1nc2ccc(Br)cc2cc1[C@@H](c1ccccc1)[C@@](O)(CCN(C)C)c1cccc2ccccc12` [BEDAQUILINE] registered an MIC99 of 0.03 µg/mL (≈ 0.054 µM).
In turn, `C[C@H]1COC2(CCN(c3nc(=O)c4cc(C(F)(F)F)cc([N+](=O)[O-])c4s3)CC2)O1` [BTZ-043] returned an MIC in assay [14] of 0.001 µg/mL (≈ 0.00232 µM).
Compound `C[C@]1(COc2ccc(N3CCC(Oc4ccc(OC(F)(F)F)cc4)CC3)cc2)Cn2cc([N+](=O)[O-])nc2O1` [DELAMANID] displayed an MIC in [1] of 0.012 µg/mL.
As to `NC(=S)N/N=C/c1cccnc1` [NICOTHIAZONE], the MIC in assay [3] came to 3.1 µg/mL.
For the compound `O=[N+]([O-])c1cn2c(n1)OC[C@@H](OCc1ccc(OC(F)(F)F)cc1)C2` [PRETOMANID], in assay [1], the MIC90 was found to be 0.039 µg/mL.
On to `CC(=O)NC[C@H]1CN(c2ccc(N3CCSCC3)c(F)c2)C(=O)O1` [SUTEZOLID], for which the MIC in [1] was in the range of 0.03 to 0.5 µg/mL.
